These results are taken from patent US12084436B2, “Heterocyclic compound” (Takeda Pharmaceutical Company Limited, priority 2019, dated 2024).

In one assay the target is T1, HDAC6 enzyme (Homo sapiens, UniProt Q9UBN7).
T1 construct: prepared by transducing full length HDAC6 gene into Sf-9 insect cells; GST; purchased SignalChem; host or cells: Sf-9 insect cells
T1 sequence (Q9UBN7 1-1215): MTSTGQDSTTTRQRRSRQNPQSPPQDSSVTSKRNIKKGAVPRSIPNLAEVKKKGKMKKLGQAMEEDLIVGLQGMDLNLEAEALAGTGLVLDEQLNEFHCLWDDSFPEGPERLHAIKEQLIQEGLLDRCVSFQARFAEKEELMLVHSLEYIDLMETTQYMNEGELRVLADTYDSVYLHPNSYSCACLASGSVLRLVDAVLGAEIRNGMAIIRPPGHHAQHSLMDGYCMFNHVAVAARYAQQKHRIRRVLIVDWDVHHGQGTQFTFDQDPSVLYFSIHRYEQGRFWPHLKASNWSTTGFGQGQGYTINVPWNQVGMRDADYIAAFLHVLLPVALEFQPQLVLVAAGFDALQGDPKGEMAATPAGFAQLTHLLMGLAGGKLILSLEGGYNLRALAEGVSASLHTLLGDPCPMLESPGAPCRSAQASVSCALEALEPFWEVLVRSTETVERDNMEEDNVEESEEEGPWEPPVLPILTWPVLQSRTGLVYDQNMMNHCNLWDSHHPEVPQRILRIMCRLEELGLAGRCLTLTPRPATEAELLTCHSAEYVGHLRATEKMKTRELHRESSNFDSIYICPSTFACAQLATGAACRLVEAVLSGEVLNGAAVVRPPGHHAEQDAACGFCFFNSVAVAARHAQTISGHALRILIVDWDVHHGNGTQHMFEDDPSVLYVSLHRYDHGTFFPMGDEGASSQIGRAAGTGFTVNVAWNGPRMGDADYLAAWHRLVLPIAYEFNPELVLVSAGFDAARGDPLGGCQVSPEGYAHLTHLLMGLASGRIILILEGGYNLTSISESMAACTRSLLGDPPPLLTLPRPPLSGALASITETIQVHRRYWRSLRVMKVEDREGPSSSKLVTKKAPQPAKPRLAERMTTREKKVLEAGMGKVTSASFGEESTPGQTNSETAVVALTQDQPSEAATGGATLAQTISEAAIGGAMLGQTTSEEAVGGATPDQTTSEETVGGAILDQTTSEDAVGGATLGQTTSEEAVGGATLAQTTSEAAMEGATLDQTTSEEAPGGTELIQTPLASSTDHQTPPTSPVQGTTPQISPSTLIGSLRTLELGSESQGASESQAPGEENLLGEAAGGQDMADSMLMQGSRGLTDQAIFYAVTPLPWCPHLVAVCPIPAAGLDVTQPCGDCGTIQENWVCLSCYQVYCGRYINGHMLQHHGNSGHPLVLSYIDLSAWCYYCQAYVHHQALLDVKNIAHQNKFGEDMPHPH
Nature of the assay: HDAC6 enzyme inhibitory assay (HDAC-Glo I/II Assay kit, luminescence). The class given is biochemical. Particulars: 10 μM test compound; wells without enzyme = 100% inhibition; 10 µM. The gist of the method:
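Full-length human HDAC6, GST-purified from Sf-9 cells, was preincubated with compound for 60 min at room temperature in Tris-HCl pH 7.5 buffer with glutathione and Tween-20. Substrate-developer was then added, and luminescence was read after 20 min at room temperature. Inhibition was expressed relative to no-enzyme wells, taken as 100% inhibition.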
For `CN1C(=O)c2cc(-c3nnc(C(F)F)o3)ccc2OC1(C)c1ccc(C#N)cc1` (single isomer, unassigned; isomer 1) [Example 36b, 4-{6-[5-(difluoromethyl)-1,3,4-oxadiazol-2-yl]-2,3-dimethyl-4-oxo-3,4-dihydro-2H-1,3-benzoxazin-2-yl}benzonitrile (optical isomer 1)], the “HDAC6 inhibitory rate (%) (10 μM)” value is on record as 62%.

Take `CN1C(=O)c2cc(-c3nnc(C(F)F)o3)ccc2CC1(C)c1ccc(F)cc1` (single isomer, unassigned; isomer 1) [Example 23b, 7-[5-(difluoromethyl)-1,3,4-oxadiazol-2-yl]-3-(4-fluorophenyl)-2,3-dimethyl-3,4-dihydroisoquinolin-1(2H)-one (optical isomer 1)]: the “HDAC6 inhibitory rate (%) (10 μM)” value is listed as 58%. Regarding `CN1C(=O)c2cc(-c3nnc(C(F)F)o3)cnc2CC1(C)c1ccc(F)cc1` (single isomer, unassigned) [Example 1b, 3-[5-(difluoromethyl)-1,3,4-oxadiazol-2-yl]-7-(4-fluorophenyl)-6,7-dimethyl-7,8-dihydro-1,6-naphthyridin-5(6H)-one], the “HDAC6 inhibitory rate (%) (10 μM)” value amounted to 100%.

Staying with this assay, now noted: 10 μM test compound; wells without enzyme = 100% inhibition; read-out: HDAC6 inhibitory rate (%) (10 μM).
With `CN1C(=O)c2cc(-c3nnc(C(F)F)o3)ccc2OC1(C)c1cccc(Cl)c1` (centres unmarked) [Example 19b, 2-(3-chlorophenyl)-6-[5-(difluoromethyl)-1,3,4-oxadiazol-2-yl]-2,3-dimethyl-2,3-dihydro-4H-1,3-benzoxazin-4-one], the inhibition at 10 µM was found to be 100%. As to `FC(F)c1nnc(-c2cccc(-n3nccc3C3CC3)c2)o1` [Example 2a, 2-[3-(5-cyclopropyl-1H-pyrazol-1-yl)phenyl]-5-(difluoromethyl)-1,3,4 oxadiazole], the inhibition at 10 µM worked out at 104%. On to `CN(CCOCc1ccccc1)N1Cc2ccc(-c3nnc(C(F)F)o3)cc2C1=O` [Example 48c, 2-{[2-(benzyloxy)ethyl](methyl)amino}-6-[5-(difluoromethyl)-1,3,4-oxadiazol-2-yl]-2,3-dihydro-1H-isoindol-1-one], for which the inhibition at 10 µM is 99%.

Consider `CC(=O)N1CCC(Cn2ccnc2-c2cc(F)cc(-c3nnc(C(F)F)o3)c2)CC1` [Example 31a, 1-{4-[(2-{3-[5-(difluoromethyl)-1,3,4-oxadiazol-2-yl]-5-fluorophenyl}-1H-imidazol-1-yl)methy]piperidin-1-yl}ethan-1-one], for which the inhibition at 10 µM was found to be 98%.

With `CN1C(=O)c2cc(-c3nnc(C(F)F)o3)ccc2OC1(C)c1ccc(C#N)cc1` (centres unmarked) [Example 20b, 4-{6-[5-(difluoromethyl)-1,3,4-oxadiazol-2-yl]-2,3-dimethyl-4-oxo-3,4-dihydro-2H-1,3-benzoxazin-2-yl}benzonitrile], the inhibition at 10 µM is 99%. `COc1ccccc1Cn1ccnc1-c1cc(-c2nnc(C(F)F)o2)ccn1` [Example 84a, 4-[5-(difluoromethyl)-1,3,4-oxadiazol-2-yl]-2-{1-[(2-methoxyphenyl)methyl}-1H-imidazol-2-yl}pyridine]: the inhibition at 10 µM was found to be 100%.

As to `COCCOC(=O)N(Cc1ccc(F)cc1)N1Cc2ccc(-c3nnc(C(F)F)o3)cc2C1=O` [Example 11c, 2-methoxyethyl {6-[5-(difluoromethyl)-1,3,4-oxadiazol-2-yl]-1-oxo-1,3-dihydro-2H-isoindol-2-yl}[(4-fluorophenyl)methyl]carbamate], the inhibition at 10 µM was 99%. Take `COc1cncc(Cn2ccnc2-c2cc(F)cc(-c3nnc(C(F)F)o3)c2)n1` [Example 58a, 2-[(2-{3-[5-(difluoromethyl)-1,3,4-oxadiazol-2-yl]-5-fluorophenyl}-1H-imidazol-1-yl)methyl]-6-methoxypyrazine]: the inhibition at 10 µM stood at 98%. Turning to `O=C1OCC(Cc2ccccn2)N1c1cc(F)cc(-c2nnc(C(F)F)o2)c1` (centres unmarked) [Example 41a, 3-{3-[5-(difluoromethyl)-1,3,4-oxadiazol-2-yl)-5-fluorophenyl}-4-[(pyridin-2-yl)methyl]-1,3-oxazolidin-2-one], the inhibition at 10 µM amounted to 21%. In the case of `CCOC(=O)CN(C)N1Cc2ccc(-c3nnc(C(F)F)o3)cc2C1=O` [Example 46c, ethyl N-{6-[5-(difluoromethyl)-1,3,4-oxadiazol-2-yl]-1-oxo-1,3-dihydro-2H-isoindol-2-yl}-N-methylglycinate], the inhibition at 10 µM came to 99%. Still for that read-out and setting: under `Cc1nn(C)cc1Cn1ccnc1-c1cc(F)cc(-c2nnc(C(F)F)o2)c1` [Example 63a, 2-(difluoromethyl)-5-(3-{1-[(1,3-dimethyl-1H-pyrazol-4-yl)methyl]-1H-imidazol-2-yl}-5-fluorophenyl)-1,3,4-oxadiazole] stands 97%; under `CN(Cc1ccnc(F)c1)N1Cc2ccc(-c3nnc(C(F)F)o3)cc2C1=O` [Example 51c, 6-[5-(difluoromethyl)-1,3,4-oxadiazol-2-yl]-2-{[(2-fluoropyridin-4-yl)methyl](methyl)amino}-2,3-dihydro-1H-isoindol-1-one], 100%. With `CC1(c2ccc(F)cc2)Oc2ccc(-c3nnc(C(F)F)o3)cc2C(=O)N1CC1CC1` (centres unmarked) [Example 47b, 3-(cyclopropylmethyl)-6-[5-(difluoromethyl)-1,3,4-oxadiazol-2-yl]-2-(4-fluorophenyl)-2-methyl-2,3-dihydro-4H-1,3-benzoxazin-4-one], the inhibition at 10 µM was found to be 101%. Turning to `Fc1cccc(Cn2ccnc2-c2cc(-c3nnc(C(F)F)o3)ccn2)c1` [Example 71a, 4-[5-(difluoromethyl)-1,3,4-oxadiazol-2-yl]-2-{1-[(3-fluorophenyl)methyl]-1H-imidazol-2-yl}pyridine], the inhibition at 10 µM came to 100%. Regarding `CC(=O)Nc1ccc(CN(C)N2Cc3ccc(-c4nnc(C(F)F)o4)cc3C2=O)cc1` [Example 52c, N-(4-{[{6-[5-(difluoromethyl)-1,3,4-oxadiazol-2-yl]-1-oxo-1,3-dihydro-2H-isoindol-2-yl}(methyl)amino]methyl}phenyl) acetamide], the inhibition at 10 µM stood at 100%. Consider `COC1CCCC(OC(=O)N(Cc2ccc(F)cc2)N2Cc3ccc(-c4nnc(C(F)F)o4)cc3C2=O)C1` (centres unmarked) [Example 24c, 3-methoxycyclohexyl {6-[5-(difluoromethyl)-1,3,4-oxadiazol-2-yl]-1-oxo-1,3-dihydro-2H-isoindol-2-yl}[(4-fluorophenyl)methyl]carbamate], for which the inhibition at 10 µM was determined as 100%. Take `Cn1ccc(OCc2ccccc2)c(-c2cc(F)cc(-c3nnc(C(F)F)o3)c2)c1=O` [Example 35a, 4-(benzyloxy)-3-{3-[5-(difluoromethyl)-1,3,4-oxadiazol-2-yl]-5-fluorophenyl}-1-methylpyridin-2(1H)-one]: the inhibition at 10 µM was 98%. Turning to `CN1C(=O)c2cc(-c3nnc(C(F)F)o3)ccc2OC1(C)C1CCCCC1` (centres unmarked) [Example 14b, 2-cyclohexyl-6-[5-(difluoromethyl)-1,3,4-oxadiazol-2-yl]-2,3-dimethyl-2,3-dihydro-4H-1,3-benzoxazin-4-one], the inhibition at 10 µM amounted to 98%. Consider `CN1C(=O)c2cc(-c3nnc(C(F)F)o3)cnc2C[C@]1(C)c1cccc(F)c1` [Example 53b, (7R)-3-[5-(difluoromethyl)-1,3,4-oxadiazol-2-yl]-7-(3-fluorophenyl)-6,7-dimethyl-7,8-dihydro-1,6-naphthyridin-5(6H)-one], for which the inhibition at 10 µM turned out to be 98%. Consider `CCN1C(=O)c2cc(-c3nnc(C(F)F)o3)ccc2OC1(C)c1ccc(F)cc1` (centres unmarked) [Example 45b, 6-[5-(difluoromethyl)-1,3,4-oxadiazol-2-yl]-3-ethyl-2-(4-fluorophenyl)-2-methyl-2,3-dihydro-4H-1,3-benzoxazin-4-one], for which the inhibition at 10 µM came out at 100%.
